Converted amounts (≈) assume the structure as drawn. Residues, ends and D or L forms follow the SMILES beside them.
Experiments:
physchem = type: physicochemical
How it was run: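 Peptide TFA salts were shaken at a nominal 10 mg/mL in 0.1 M phosphate buffer, pH 6 to 8, for 2 h at room temperature and then filtered. Reversed-phase HPLC peak area was compared with a 1 mg/mL control in buffer or DMSO to give solubility. The pH of each sample was recorded.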

human NMUR2 receptor = human NMUR2 receptor (Homo sapiens, UniProt Q9GZQ4); test: Radioligand binding competition assay (RLB), human NMUR2 receptor binding (SPA, [125I]-Neuromedin U-25); design: host or cells: CHO-K1; settings: CHO-K1 hNMUR2 cell membranes, 4 hours at RT
Sequence of human NMUR2 receptor (Q9GZQ4 whole entry): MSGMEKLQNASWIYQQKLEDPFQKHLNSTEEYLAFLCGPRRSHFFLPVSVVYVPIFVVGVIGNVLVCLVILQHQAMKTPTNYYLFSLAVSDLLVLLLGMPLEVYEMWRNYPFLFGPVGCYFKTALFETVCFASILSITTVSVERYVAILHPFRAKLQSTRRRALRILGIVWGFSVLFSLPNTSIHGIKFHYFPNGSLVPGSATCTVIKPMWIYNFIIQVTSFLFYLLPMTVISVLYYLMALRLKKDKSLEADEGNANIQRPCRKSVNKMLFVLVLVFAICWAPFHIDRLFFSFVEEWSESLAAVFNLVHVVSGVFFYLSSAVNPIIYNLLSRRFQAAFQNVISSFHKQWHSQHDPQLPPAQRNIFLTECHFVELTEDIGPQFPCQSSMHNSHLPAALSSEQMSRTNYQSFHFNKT

human NMUR1 receptor = molecular target: T1, human NMUR1 receptor (Homo sapiens, UniProt Q9HB89); test: Radioligand binding competition assay (RLB), human NMUR1 receptor binding (SPA, [125I]-Neuromedin U-25); settings: CHO-K1 hNMUR1 cell membranes, 4 hours at RT
T1 construct: host or cells: CHO-K1
T1 sequence (Q9HB89 24-426 limits assumed): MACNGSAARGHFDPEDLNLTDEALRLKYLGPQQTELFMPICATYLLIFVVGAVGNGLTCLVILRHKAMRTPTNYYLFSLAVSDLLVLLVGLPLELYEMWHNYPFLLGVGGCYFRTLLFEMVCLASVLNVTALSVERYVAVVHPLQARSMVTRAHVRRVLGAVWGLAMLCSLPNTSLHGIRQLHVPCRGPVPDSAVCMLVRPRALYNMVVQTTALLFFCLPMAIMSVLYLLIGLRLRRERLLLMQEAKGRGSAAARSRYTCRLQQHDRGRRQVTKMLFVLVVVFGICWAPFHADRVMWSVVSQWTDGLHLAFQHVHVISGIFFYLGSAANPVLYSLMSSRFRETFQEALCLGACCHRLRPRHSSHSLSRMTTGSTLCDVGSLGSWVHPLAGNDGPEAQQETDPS
How it was run: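 SPA competition binding on CHO-K1 membranes stably expressing human NMUR1 (about 1.0 μg protein) on WGA-PVT beads, using about 30 pM [125I]-Neuromedin U-25. Incubation was 4 h at RT in 25 mM Hepes pH 7.0, 5 mM MgCl2, 1 mM CaCl2, saponin and 0.1% BSA. Non-specific binding was defined by 100 nM unlabeled hNMU-25; values assume one-site reversible equilibrium binding.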

Row | solubility at 2 h (physchem; pH 7.2) | SMILES | solubility at 2 h (physchem; pH 7.3) | Ki (human NMUR2 receptor) | Ki (human NMUR1 receptor) | solubility at 2 h (physchem; pH 6.9) | solubility at 2 h (physchem; pH 7)
1 |  | CCCC[C@H](NC(=O)[C@H](CC(C)C)N(C)C(=O)[C@H](Cc1ccccc1)NC(=O)[C@H](Cc1ccc(O)cc1)NC(=O)CN1CCN(CCNC(=O)CN(C)C(=O)CN(C)C(=O)CN(C)C(=O)CN(C)C(=O)CN(C)C(=O)CN(C)C(=O)CN(C)C(=O)CN(C)C(=O)CN(C)C(=O)CN(C)C(=O)CN(C)C(=O)CN(C)C(=O)CN(C)C(=O)CN(C)C(=O)CN(C)C(=O)CC[C@H](NC(=O)CC[C@H](NC(=O)CC[C@H](NC(=O)CCCCCCCCCCCCCCCCC(=O)O)C(=O)O)C(=O)O)C(=O)O)CC1)C(=O)N[C@@H](CCN)C(=O)N1CCC[C@H]1C(=O)N[C@@H](CCCNC(=N)N)C(=O)NCC(N)=O [Compound 26, C18DA-gGlu3-Sar15-AEPipAc-Tyr-Phe-NMeLeu-Nle-Dbu-Pro-Arg-Gly-NH2] (HELM PEPTIDE1{[O=C(O)CCCCCCCCCCCCCCCCC(=O)[*:2]].[gGlu].[gGlu].[gGlu].[Sar].[Sar].[Sar].[Sar].[Sar].[Sar].[Sar].[Sar].[Sar].[Sar].[Sar].[Sar].[Sar].[Sar].[Sar].[O=C(CN1CCN(CCN[*:1])CC1)[*:2]].Y.F.[meL].[Nle].[Dab].P.R.G.[am]}$$$$V2.0) | 7700 µg/mL (≈ 2660 µM) | 48.1 nM | > 10000 nM |  | 
2 | 8800 µg/mL (≈ 3280 µM) | CCCC[C@H](NC(=O)[C@H](CC(C)C)N(C)C(=O)[C@H](Cc1ccccc1)NC(=O)[C@H](Cc1ccc(O)cc1)NC(=O)CN1CCN(CCNC(=O)CN(C)C(=O)CN(C)C(=O)CN(C)C(=O)CN(C)C(=O)CN(C)C(=O)CN(C)C(=O)CN(C)C(=O)CN(C)C(=O)CN(C)C(=O)CN(C)C(=O)CN(C)C(=O)CN(C)C(=O)CC[C@H](NC(=O)CC[C@H](NC(=O)CC[C@H](NC(=O)CCCCCCCCCCCCCCCCC(=O)O)C(=O)O)C(=O)O)C(=O)O)CC1)C(=O)N[C@@H](CCN)C(=O)N1CCC[C@H]1C(=O)N[C@@H](CCCNC(=N)N)C(=O)NCC(N)=O [Compound 27, C18DA-gGlu3-Sar12-AEPipAc-Tyr-Phe-NMeLeu-Nle-Dbu-Pro-Arg-Gly-NH2] |  | 23.4 nM | > 10000 nM |  | 
3 | 8800 µg/mL (≈ 3290 µM) | CCCC[C@H](NC(=O)[C@H](CC(C)C)N(C)C(=O)[C@H](Cc1ccccc1)NC(=O)[C@H](Cc1ccc(O)cc1)NC(=O)CN1CCN(CCNC(=O)CN(C)C(=O)CN(C)C(=O)CN(C)C(=O)CN(C)C(=O)CN(C)C(=O)CN(C)C(=O)CN(C)C(=O)CN(C)C(=O)CN(C)C(=O)CN(C)C(=O)CN(C)C(=O)CN(C)C(=O)CC[C@H](NC(=O)CC[C@H](NC(=O)CC[C@H](NC(=O)CCCCCCCCCCCCCCCCC(=O)O)C(=O)O)C(=O)O)C(=O)O)CC1)C(=O)N[C@@H](CCN)C(=O)N(C)[C@@H](C)C(=O)N[C@@H](CCCNC(=N)N)C(=O)NCC(N)=O [Compound 38, C18DA-gGlu3-Sar12-AEPipAc-Tyr-Phe-NMeLeu-Nle-Dbu-NMeAla-Arg-Gly-NH2] |  | 33.8 nM | > 10000 nM |  | 
4 |  | CCCC[C@H](NC(=O)[C@H](CC(C)C)N(C)C(=O)[C@H](Cc1ccccc1)NC(=O)[C@H](Cc1ccc(O)cc1)NC(=O)CN1CCN(CCNC(=O)CN(C)C(=O)CN(C)C(=O)CN(C)C(=O)CN(C)C(=O)CN(C)C(=O)CN(C)C(=O)CN(C)C(=O)CN(C)C(=O)CN(C)C(=O)CN(C)C(=O)CN(C)C(=O)CN(C)C(=O)CN(C)C(=O)CN(C)C(=O)CN(C)C(=O)CC[C@H](NC(=O)CC[C@H](NC(=O)CC[C@H](NC(=O)CCCCCCCCCCCCCCCCCCC(=O)O)C(=O)O)C(=O)O)C(=O)O)CC1)C(=O)N[C@@H](CCN)C(=O)N1CCC[C@H]1C(=O)N[C@@H](CCCNC(=N)N)C(=O)NCC(N)=O [Compound 42, C20DA-gGlu3-Sar15-AEPipAc-Tyr-Phe-NMeLeu-Nle-Dbu-Pro-Arg-Gly-NH2] (HELM PEPTIDE1{[O=C(O)CCCCCCCCCCCCCCCCCCC(=O)[*:2]].[gGlu].[gGlu].[gGlu].[Sar].[Sar].[Sar].[Sar].[Sar].[Sar].[Sar].[Sar].[Sar].[Sar].[Sar].[Sar].[Sar].[Sar].[Sar].[O=C(CN1CCN(CCN[*:1])CC1)[*:2]].Y.F.[meL].[Nle].[Dab].P.R.G.[am]}$$$$V2.0) |  | 23.7 nM | > 10000 nM | 5300 µg/mL (≈ 1810 µM) | 
5 |  | CCCC[C@H](NC(=O)[C@H](CC(C)C)N(C)C(=O)[C@H](Cc1ccccc1)NC(=O)[C@H](Cc1ccc(O)cc1)NC(=O)CN1CCN(CCNC(=O)CN(C)C(=O)CN(C)C(=O)CN(C)C(=O)CN(C)C(=O)CN(C)C(=O)CN(C)C(=O)CN(C)C(=O)CN(C)C(=O)CN(C)C(=O)CN(C)C(=O)CN(C)C(=O)CN(C)C(=O)CN(C)C(=O)CN(C)C(=O)CN(C)C(=O)CC[C@H](NC(=O)CC[C@H](NC(=O)CC[C@H](NC(=O)CCCCCCCCCCCCCCCCCCC(=O)O)C(=O)O)C(=O)O)C(=O)O)CC1)C(=O)N[C@@H](CCN)C(=O)N(C)[C@@H](C)C(=O)N[C@@H](CCCNC(=N)N)C(=O)NCC(N)=O [Compound 43, C20DA-gGlu3-Sar15-AEPipAc-Tyr-Phe-NMeLeu-Nle-Dbu-NMeAla-Arg-Gly-NH2] (HELM PEPTIDE1{[O=C(O)CCCCCCCCCCCCCCCCCCC(=O)[*:2]].[gGlu].[gGlu].[gGlu].[Sar].[Sar].[Sar].[Sar].[Sar].[Sar].[Sar].[Sar].[Sar].[Sar].[Sar].[Sar].[Sar].[Sar].[Sar].[O=C(CN1CCN(CCN[*:1])CC1)[*:2]].Y.F.[meL].[Nle].[Dab].[meA].R.G.[am]}$$$$V2.0) |  | 32.6 nM | > 10000 nM |  | 5600 µg/mL (≈ 1920 µM)

Row | SMILES | solubility at 2 h (physchem; pH 7.2) | solubility at 2 h (physchem; pH 7.3) | Ki (human NMUR2 receptor) | Ki (human NMUR1 receptor) | solubility at 2 h (physchem; pH 6.9) | solubility at 2 h (physchem; pH 7)
6 | CCCC[C@H](NC(=O)[C@H](CC(C)C)N(C)C(=O)[C@H](Cc1ccccc1)NC(=O)[C@H](Cc1ccc(O)cc1)NC(=O)CN1CCN(CCNC(=O)CN(C)C(=O)CN(C)C(=O)CN(C)C(=O)CN(C)C(=O)CN(C)C(=O)CN(C)C(=O)CN(C)C(=O)CN(C)C(=O)CN(C)C(=O)CC[C@H](NC(=O)CC[C@H](NC(=O)CC[C@H](NC(=O)CCCCCCCCCCCCCCCCC(=O)O)C(=O)O)C(=O)O)C(=O)O)CC1)C(=O)N[C@@H](CCN)C(=O)N(C)[C@@H](C)C(=O)N[C@@H](CCCNC(=N)N)C(=O)NCC(N)=O [Compound 28, C18DA-gGlu3-Sar9-AEPipAc-Tyr-Phe-NMeLeu-Nle-Dbu-NMeAla-Arg-Gly-NH2] (HELM PEPTIDE1{[O=C(O)CCCCCCCCCCCCCCCCC(=O)[*:2]].[gGlu].[gGlu].[gGlu].[Sar].[Sar].[Sar].[Sar].[Sar].[Sar].[Sar].[Sar].[Sar].[O=C(CN1CCN(CCN[*:1])CC1)[*:2]].Y.F.[meL].[Nle].[Dab].[meA].R.G.[am]}$$$$V2.0) | 8500 µg/mL (≈ 3460 µM) |  | 56.2 nM | > 10000 nM |  | 

From patent US20240279278A1, “NMU RECEPTOR 2 AGONISTS” (Boehringer Ingelheim International GmbH, priority 2023, published 2024)
